Measurements: a melting point compilation (Tetko et al.; mined from patent text by program, amines drawn as free bases though some values may be those of a salt)

Row | SMILES | melting point [°C]
1 | c1ccc(-c2cncc(CN3CCN(c4ccccc4)CC3)c2)cc1 | 83 to 85
2 | CCCOc1ccc(F)cc1C1=NC(=O)C2=NC=NC2=N1 | 238
3 | COc1cc(OC)c2c(=O)[nH]c(-c3cc(C)c(OCCN4CCC4)c(C)c3)nc2c1 | 204 to 205
4 | Cc1nc(N2C[C@@H](C)N(Cc3cc(F)cc(F)c3)C2=O)sc1C(=O)NCc1ccccn1 | 147 to 148
5 | CNc1cccc(-c2csc(NC(=N)N)n2)c1 | 198 to 200
6 | COc1cc(C=CC2=NN=C(C)Cc3cc(OC)c(OC)cc32)ccc1O | 192 to 193
7 | CC(=O)C1=Cc2ccccc2NN=C1 | 66 to 68
8 | C=CCOc1ccc2c(C)cc(=O)oc2c1C(=O)C=Cc1ccc(Cl)cc1 | 153 to 155
9 | CSc1ccccc1CNC(=O)[C@@H]1CCCN(c2cccc3c2C(=O)N(Cc2ccncc2)C3=O)C1 | 216 to 217
10 | CN(C)S(=O)(=O)Oc1cc(-n2c(=O)cc(C(F)(F)F)n(C)c2=O)c(F)cc1Cl | 118 to 120
11 | COc1c(-c2ccc3cc(NS(C)(=O)=O)ccc3c2)cc(-c2ccc[nH]c2=O)cc1C(C)(C)C | > 300
12 | COc1ccc2nc(-c3cc(C)c(OCCN4CCCC4)c(C)c3)[nH]c(=O)c2c1 | 201 to 203
13 | COc1ccc(C(=CC(=O)N2CCOCC2)c2ccc(CC(=O)O)cc2)cc1OC | 192 to 194
14 | CC1(C)CC(=O)N(CCOC(OCCN2C(=O)CC(C)(C)CC2=O)(C(=O)c2ccccc2)c2ccccc2)C(=O)C1 | 130
15 | CC(C)(C)OC(=O)C(CO)NC(=O)c1coc(-c2cocn2)n1 (centres undefined) | 85 to 87
16 | CC(C)C=NNC1=NS(=O)(=O)c2ccccc21 | 225
17 | OCC1Cc2c([nH]c3ccccc23)CN1C(=S)S (centres undefined) | 225 to 227
18 | CCO[C@@H](Cc1ccc(OCCN2CCC(C)(C)c3cc(C(=NOC)c4ccc(C(=O)O)cc4)ccc32)cc1)C(=O)O | 83 to 85
19 | O=Cc1ccc2c(c1)OC(c1ccccc1)(c1ccccc1)O2 | 157 to 159
20 | CC(O)(CC(=O)O)c1ccc(-c2ccc(F)cc2)cc1 (centres undefined) | 81 to 82
21 | O=C(NCCc1ccccc1)c1ccc(N2CCOCC2)nc1 | 163 to 165
22 | CCc1cc(Nc2ccc([N+](=O)[O-])cc2)n2nccc2n1 | 158 to 160
23 | O=C1c2cccc3c(F)ccc(c23)C(=O)N1O | 257 to 261
24 | O=C(Nc1ccc(CCc2ccc(Cl)c(Cl)c2)cc1)C1CSc2ccccc2C1=O (centres undefined) | 234 to 236
25 | COc1ccc(C(=O)c2ccc(CBr)cc2)cc1 | 76 to 78

Row | SMILES | melting point [°C]
26 | O=C([C@@H]1CCCN1C(=O)CC1CCc2ccccc2C1)N1CCCC1 (some centres undefined) | 104 to 106
27 | COc1cc(OCc2ccccn2)ccc1/C=C/C(=O)CC(=O)/C=C/c1ccc2cc[nH]c2c1 | 165 to 168
28 | O=C1CC(c2ccccc2)c2cc(C(=O)c3ccc(Cl)cc3)ccc2N1 (centres undefined) | 204
29 | COC(=O)/C(=C/C=C/c1cc2cc(Cl)ccc2[nH]1)OC | 166 to 168
30 | CC(C)OC(=O)Nc1cc(C2CC2)on1 | 64.5 to 65.5
31 | Nc1ccc2ccccc2c1-c1c(O)ccc2ccccc12 | 236 to 237
32 | CC(C)c1ccc(CCCC(=O)O)cc1 | 50 to 51
33 | Cc1ccc(S(=O)C(C(=O)OC(C)(C)C)C(O)c2ccc(Oc3ccccc3)cc2)cc1 (centres undefined) | 126 to 128
34 | CC(C)(C)C(O)Cn1c(=O)c(=NNc2ccccc2)c(=O)n(-c2ccccc2F)c2ccccc21 (centres undefined) | 217 to 218
35 | NS(=O)(=O)c1ccc(N2CN(c3cccc(Cl)c3)CC2=O)c(Cl)c1 | 208 to 216
36 | C1=Cc2cc3ccccc3cc2CS1 | 84
37 | OCCCc1ccncc1O | 123 to 126
38 | O=C(NC(CS)Cc1ccccc1)N1CCN(c2ccccc2)CC1 (single isomer, unassigned; (+)) | 122
39 | COCCOc1cc(C)nc(NC(=O)NS(=O)(=O)c2ccccc2Cl)n1 | 130 to 140
40 | Cc1cc2ncc(C#N)c(Cl)c2s1 | 163 to 164
41 | S=C(NCC1CCCCC1)NCC1CCCCC1 | 124 to 125
42 | O=CN(O)C(CS(=O)(=O)c1ccc(-c2ccc(C(F)(F)F)cc2)cc1)c1ccc2c(c1)OCO2 (centres undefined) | 160
43 | COc1cc2c(cc1S(=O)(=O)c1ccc(F)cc1)CCN(C)CC2 | 129 to 130
44 | CCn1ccc(C(=O)c2cc(C(C)(C)C)c(O)c(C(C)(C)C)c2)c1 | 73 to 75
45 | CCc1ccc(Nc2nc3cc(NC(=O)c4ccccc4)ccc3o2)cc1 | 239 to 240
46 | Cc1ccc(Cc2cnc(NCCCN)[nH]c2=O)cn1 | 162 to 164
47 | CC(C)n1nc(-c2ccc(O)cc2O)c2cccc(C(F)(F)F)c21 | 61 to 63
48 | COC(=O)c1ccc2c(c1)C(=O)c1ccc(C(=O)OC)cc1C2=O | 260
49 | COc1cc(S(=O)(=O)c2ccncc2)ccc1NC(=O)C(C)(O)C(F)(F)F (centres undefined) | 220 to 222
50 | CCOC(=O)c1nn(-c2ccc(F)cc2)c2c1CCCC2 | 100 to 101

Row | SMILES | melting point [°C]
51 | CCC12CCC3=C(CC(C)c4cc(OC)ccc43)C1CCC21OCCO1 (centres undefined) | 122 to 124
52 | Cc1ccc2nc(-c3ccc(-c4ccccc4)cc3)c(O)c(C(=O)O)c2c1 | 236 to 238
53 | CN1CCN(c2cccc3c2C[C@H](NC(=O)CCCc2ccccc2)CC3)CC1 | 137 to 139
54 | CC(C)(C)c1cccc(C[C@@H](NC(=O)c2ccc(F)c3ccccc23)[C@@H](O)c2cccc(Cl)c2)c1 (racemic) | 76 to 78
55 | O=C1Nc2ccccc2N(C(=O)CN2CCCC(CN3CCCCC3)C2)c2ccccc21 (centres undefined) | 150 to 152
56 | N#CCSC(C(=O)O)c1ccccc1 (centres undefined) | 110 to 112
57 | O=C(SC[C@@H](SC(=O)c1ccccc1)C(=O)N1CCC[C@H]1C(=O)O)c1ccccc1 | 195 to 196
58 | Cc1sc2c(Br)c3ccccc3c(-c3cc(C(C)C)c(O)c(C(C)C)c3)c2c1C | 212 to 216
59 | CC(C)(C)OC(=O)N[C@@H](Cc1ccc(-c2ccccc2)cc1)C(=O)OCc1ccccc1 | 98.3 to 100
60 | CCc1ccc2c(C=O)c3ccccc3c(C=O)c2c1 | 99 to 100
61 | COc1ccc(-c2c3c(cc4ccc(O)cc24)-c2ccc(O)cc2CO3)cc1 | 200 to 203
62 | O=C(NC1CCOCC1)c1ccc(-c2cc(-c3c(-c4ccccn4)nc4ccccn34)ccn2)cc1 | 179
63 | CCOC=Nc1c2oc3ccccc3c2nn1C | 120 to 122
64 | C/C(=C\C(=O)NCc1cccnc1)c1ccc(OCC(=O)O)cc1 | 228 to 229
65 | COc1c(-c2ccc3cc(NS(C)(=O)=O)ccc3c2)cc(N2CCCNC2=O)cc1C(C)(C)C | > 300
66 | O=C1c2c(-c3ccccc3F)noc2CCC1CCCN1CCN(c2ccccn2)CC1 (centres undefined) | 94 to 96
67 | COc1ccc2c(c1)C(=O)NCC2 | 90 to 93
68 | CCOc1nn(Cc2ccc(OCc3nc(-c4ccco4)oc3C)c(OC)c2)cc1CCC(=O)O | 133 to 134
69 | COc1cc(-c2oc3c(OC)cc(/C=C/CO)cc3c2C)ccc1O | 180 to 183
70 | NC(=O)c1ncccc1CCc1cccc(F)c1 | 102 to 104
71 | CSC(=NC#N)N(C)N=Cc1ccccc1 | 132 to 133
72 | CCOC(=O)NCCOc1ccc(Oc2cccc(Cl)c2)cc1 | 45 to 46
73 | COc1cc(N)c2nccc(C)c2c1OCCCCCc1ccccc1 | 65 to 66
74 | CC(C)(C)OC(=O)C(C)(C)N1COC(CF)=C(c2ccccc2)C1=O | 80.5 to 82.5
75 | Cn1cc(C2=C(c3c4n(c5ccccc35)CCN(C(=O)Oc3ccccc3)C4)C(=O)NC2=O)c2ccccc21 | 160 to 165

Row | SMILES | melting point [°C]
76 | O=C(c1cccc(Cl)c1)c1ccccc1Nc1ncccc1[N+](=O)[O-] | 124 to 125
77 | COCCOc1cccc(-n2cc(-c3ccc(O)cc3)c3c(N)ncnc32)c1 | 103 to 112
78 | C[C@H]([C@H](O)c1ccc2c(c1)OC(c1ccccc1)(c1ccccc1)O2)N1CCC(O)(c2ccccc2)CC1 (relative stereo) | 224
79 | COc1ccc2c(c1)sc1ncc(CO)n12 | 202 to 204
80 | COc1ccc2nc(SCc3nccc(OCC(F)(F)F)c3OC)[nH]c2c1 | 149 to 150
81 | CCC(C(=O)O)N(C(=O)c1cn(-c2ccc(OC)cc2)nc1C)c1ccc(OCC(C)(C)C)c(C#N)c1 (centres undefined) | 113 to 114
82 | O=C(Nc1nccs1)c1nc(-c2cccc3ccccc23)[nH]c1-c1ccc(CO)cc1 | 226 to 228
83 | Cc1ccc(CN2C(=O)C3(COc4cc5c(cc43)OCO5)c3ccccc32)o1 (centres undefined) | 117 to 119
84 | CC(C)(C)N1CC(=O)Nc2ccc(Cl)cc2C1=O | 177 to 178
85 | C=CCNc1ccc(C(=O)O)cc1[N+](=O)[O-] | 195 to 200
86 | Cc1cc(C2=Nn3cnnc3SC2c2ccc(F)cc2)nc2c1OCC(=O)N2 (centres undefined) | 256 to 257
87 | Fc1cccc(F)c1-c1cnc(-c2ccc(-c3ccc(OC(F)(F)F)cc3)cc2)nn1 | 199 to 202
88 | CC(=O)N1CCN(c2nc(Nc3ccc(F)cc3F)c(C(=O)O)cc2F)CC1 | 243 to 244
89 | CCn1cc(C(=O)O)c(=O)c2cc(F)c(N3CCN(c4ncccn4)C(C)C3)c(OC(F)F)c21 (centres undefined) | 219 to 221
90 | O=Cc1ccc(O)c(C=O)n1 | 144
91 | OC[C@H]1C[C@H]2CN(c3ncc(F)cn3)CCN2C1 | 123 to 124
92 | CC(O)(CCC#N)c1ccc(-c2ccc(F)cc2)cc1 (centres undefined) | 118 to 120
93 | Cc1ccc(-c2c(Cl)ncn2-c2ccc(S(C)(=O)=O)cc2)cc1Cl | 181 to 182
94 | Cc1ccc2c(c1)oc1c(C(N)=O)nn(-c3ccc(Cl)cc3Cl)c12 | 185 to 186
95 | Cc1cccc(C)c1NC(=O)CCCCCc1cccnc1 | 98 to 100
96 | CC(=O)c1ccc(C2CCC(CC(=O)NC3CCN(Cc4ccc(Cl)c(Cl)c4)CC3)CC2)cc1 (centres undefined) | 168
97 | C#CCOc1c(Cl)cc(Cl)cc1C(=O)NCC1CCCN1C1CCCCC1 (centres undefined) | 84 to 85
98 | O=C(NCCO)c1cnc(NCCO)cc1Nc1ccc(I)cc1F | > 250
99 | OCc1csc(NCc2ccccc2)n1 | 85 to 86.5
